The numbers were not newly measured in patent US20030013675A1 (Boehringer Ingelheim Pharma KG, priority 2001, published 2003), which cites them from elsewhere.

The subject of one series is adherent human monocyte. Particulars: in particular human peripheral blood monocyte.
A further series has as its system antigen-challenged pig. The following applies: in vivo.
The conditions of series [1]: inhaled at several times the recommended dose.

Take `CCNC(=O)[C@H]1OC(n2cnc3c(N)nc(NCCc4ccc(CCC(=O)O)cc4)nc32)[C@H](O)[C@@H]1O` (stereo partly shown) [CGS 21680]: the neutrophil superoxidase release entry in the series on Human Neutrophils was “inhibits”. Besides, the “endotoxin-stimulated adherent human monocyte TNFα production” value in the series on adherent human monocyte was “decreases”.

As for `CCCn1c(=O)c2c(C)nc(CC)n2c2nc(OC)ccc21` [Example D-22888], in the series on antigen-challenged pig, the antiallergic effect result was “strong antiallergic affect” and the “rhinorrhea in the antigen-challenged pig” value is given as “inhibit rhinorrhea”.

As to `CCNC(=O)[C@@H]1O[C@H](n2cnc3c(N)ncnc32)[C@@H](O)[C@H]1O` [NECA], in the series on guinea pig eosinophils, the “zymosan-stimulated oxidative activity in guinea pig eosinophils” value is on record as “inhibits”.

Turning to `CC[N+]1(C)[C@@H]2CC(OC(=O)[C@H](CO)c3ccccc3)C[C@H]1[C@@H]1O[C@@H]12` (stereo partly shown) [oxitropium], the “change in heart rate, blood pressure, bladder function, intraocular pressure, or pupillary diameter” value in series [1] is “little or no change”.

With `C[N+]1(C)[C@@H]2C[C@@H](OC(=O)C(O)(c3cccs3)c3cccs3)C[C@H]1[C@@H]1O[C@@H]12` [tiotropium, (1α, 2β, 4β, 5α, 7β)-7-[(hydroxydi-2-thienylacetyl)oxy]-9,9-dimethyl-3-oxa-9-azoniatricyclo[3.3.1.0^2,4]nonane bromide], in series [1], the “change in heart rate, blood pressure, bladder function, intraocular pressure, or pupillary diameter” value is recorded as “little or no change”.
